# Test results reported in the Kinase Knowledgebase extract (Sharma et al. 2016).
# Columns and labels:
# MAPK14 = MAPK14 (UniProt Q16539); assay: MAPK14 (p38) Inhibition; conditions: concentration not given here
# MAPK14 (human) = MAPK14 (human) (UniProt Q16539); assay: TNF-alpha Inhibition (PBMC)
# MAPK14 (BALB/cJ mice) = assay: TNF-alpha Inhibition (Mice Model); conditions: dose or concentration not given here
# MAPK14, sequence (Q16539 whole entry, looked up): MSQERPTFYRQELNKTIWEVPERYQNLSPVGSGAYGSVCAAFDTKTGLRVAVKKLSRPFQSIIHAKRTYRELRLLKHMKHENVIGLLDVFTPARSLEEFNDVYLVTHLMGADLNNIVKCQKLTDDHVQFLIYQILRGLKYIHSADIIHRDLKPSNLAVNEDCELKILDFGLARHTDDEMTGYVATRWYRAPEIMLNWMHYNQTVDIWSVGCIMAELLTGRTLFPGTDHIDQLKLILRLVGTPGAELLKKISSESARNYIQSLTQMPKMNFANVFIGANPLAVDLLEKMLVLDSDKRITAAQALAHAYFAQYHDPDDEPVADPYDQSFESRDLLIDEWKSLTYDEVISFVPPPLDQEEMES
# MAPK14 (human), sequence (Q16539 whole entry, looked up): as above
SMILES,inhibition (MAPK14),IC50 (MAPK14 (human)),other results
Fc1ccc(-c2[nH]c(C=C(Br)Br)nc2-c2ccncc2)cc1,93%,–,–
C[Si](C)(C)CCOCn1c(C#CCCCC#N)nc(-c2ccncc2)c1-c1ccc(F)cc1,–,> 2000 nM,–
C[Si](C)(C)CCOCn1c(C=C(Br)Br)nc(-c2ccncc2)c1-c1ccc(F)cc1,16%,–,–
N#CCCCC#Cc1nc(-c2ccc(F)cc2)c(-c2ccncc2)[nH]1,–,–,inhibition (MAPK14 (BALB/cJ mice)): 95%
O[C@@H](C#Cc1nc(-c2ccncc2)c(-c2ccc(F)cc2)[nH]1)c1ccccc1,–,400 nM,–

# More lines, main results first:
inhibition (MAPK14),IC50 (MAPK14 (human)),SMILES,other results
–,> 2000 nM,C[Si](C)(C)CCOCn1c(C#CCCCCO)nc(-c2ccncc2)c1-c1ccc(F)cc1,–
99%,–,OCCCC#Cc1nc(-c2ccc(F)cc2)c(-c2ccncc2)n1CCCc1ccccc1,–
–,90 nM,CCCCCCC#Cc1nc(-c2ccc(F)cc2)c(-c2ccncc2)n1CCCc1ccccc1,–
98%,–,OCCCCC#Cc1nc(-c2ccc(F)cc2)c(-c2ccncc2)n1CCCc1ccccc1,–
